Test results published in BindingDB's records for doi:10.1016/0960-894X(95)00370-9 (1995).

Molecular target: Type-1 angiotensin II receptor A (Rattus norvegicus) (UniProt P25095)
Assay: Tested for binding affinity against angiotensin II receptor in rat adrenal cortex

Type-1 angiotensin II receptor A (Rattus norvegicus), sequence (P25095 whole entry, looked up): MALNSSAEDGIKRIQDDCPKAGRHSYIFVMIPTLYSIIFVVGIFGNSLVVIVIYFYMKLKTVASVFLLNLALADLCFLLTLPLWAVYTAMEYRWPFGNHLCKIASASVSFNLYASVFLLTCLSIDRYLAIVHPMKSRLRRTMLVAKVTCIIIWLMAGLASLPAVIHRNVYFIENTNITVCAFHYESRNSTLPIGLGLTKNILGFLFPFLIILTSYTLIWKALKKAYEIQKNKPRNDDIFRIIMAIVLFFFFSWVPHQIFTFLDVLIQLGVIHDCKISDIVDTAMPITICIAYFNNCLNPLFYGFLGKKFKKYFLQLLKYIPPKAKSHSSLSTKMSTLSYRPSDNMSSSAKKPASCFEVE

CCCc1cc(=O)n(CCN2C(=O)c3ccccc3C2=O)c(=O)n1Cc1ccc(-c2ccccc2-c2nnn[nH]2)cc1 [2-(2-{2,6-Dioxo-4-propyl-3-[2'-(1H-tetrazol-5-yl)-biphenyl-4-ylmethyl]-3,6-dihydro-2H-pyrimidin-1-yl}-ethyl)-isoindole-1,3-dione]
IC50: 4.4 nM

CCCc1cc(=O)n(CCNC(=O)C(c2ccccc2)c2ccccc2)c(=O)n1Cc1ccc(-c2ccccc2-c2nnn[nH]2)cc1 [N-(2-{2,6-Dioxo-4-propyl-3-[2'-(1H-tetrazol-5-yl)-biphenyl-4-ylmethyl]-3,6-dihydro-2H-pyrimidin-1-yl}-ethyl)-2,2-diphenyl-acetamide]
IC50: 14 nM
